The target of the assay is T1, human apelin receptor (APJ, AGTRL-1, APLNR) (Homo sapiens, UniProt P35414).
T1 construct: host or cells: Chinese hamster ovary cells
T1 sequence (P35414 1-380): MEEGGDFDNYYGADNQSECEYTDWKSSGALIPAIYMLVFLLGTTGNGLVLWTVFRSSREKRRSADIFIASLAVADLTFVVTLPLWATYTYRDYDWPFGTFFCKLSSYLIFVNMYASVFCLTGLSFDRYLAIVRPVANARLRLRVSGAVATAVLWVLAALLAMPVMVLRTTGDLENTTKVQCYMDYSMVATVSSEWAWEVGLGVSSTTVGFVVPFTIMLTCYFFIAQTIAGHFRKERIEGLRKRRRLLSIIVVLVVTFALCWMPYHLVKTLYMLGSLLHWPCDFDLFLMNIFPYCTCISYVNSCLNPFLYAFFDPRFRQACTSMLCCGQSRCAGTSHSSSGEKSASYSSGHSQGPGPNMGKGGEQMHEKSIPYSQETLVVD
The assay can be described thus: APJ cAMP cell-based assay (forskolin-stimulated CHO cells, enzyme fragment complementation). To be noted: for Emax: CHO, 0.5 h, read-out: APJ cAMP % resp (efficacy). As to the method: The assays disclosed herein were performed using cell lines from DiscoveRx, Inc.
Biological activity was determined in a cell-based assay. This assay detects activation of the receptor by reporting on intracellular cyclic adenosine monophosphate (cAMP) level. Chinese hamster ovary cells engineered to express a stably integrated human apelin receptor (APJ, AGTRL-1, APLNR), were plated into the wells of a microtiter plate. Cells were stimulated with forskolin to increase intracellular cAMP. Immediately following, compounds were added at a range of final concentrations 0.0-100 μM, in DMSO (not to exceed a final DMSO concentration of >1% v/v), and allowed to incubate with the cells for 0.5 h. At the end of the incubation, cells were lysed to stop APJ signaling, and cAMP was quantified using a commercially available assay kit that applies enzyme fragment complementation technology and bioluminescence, in a competitive ELISA format.
Compound efficacy (% resp) is reported as a percentage of the maximal apelin-13 response at 1 nM (control).

[1] abbreviates: CHO cells expressing human APJ, forskolin-stimulated, 0.5 h incubation, 50% of control (apelin-13, 1 nM) response, read-out: APJ cAMP EC50.
Setting [2] is: percentage of the maximal apelin-13 response at 1 nM (control).

Where two headings read alike, the source gives them in different places.

For `Cc1ccc2nc(CSc3nnc(-c4cccs4)n3-c3ccc(Cl)cc3)cc(=O)n2c1` [Example 26, 2-[4-(4-Chloro-phenyl)-5-thiophen-2-yl-4H-[1,2,4]triazol-3-ylsulfanylmethyl]-7-methyl-pyrido[1,2-a]pyrimidin-4-one], under setting [1], the EC50 (commonly the midpoint of the concentration-response curve) is above 10000 nM. Further, the Emax under setting [2] turned out to be 86%.

`Cc1ccc2nc(CSc3nnc(-c4cccs4)n3-c3ccccc3OC(F)(F)F)cc(=O)n2c1` [Example 27, 7-Methyl-2-[5-thiophen-2-yl-4-(2-trifluoromethoxy-phenyl)-4H-[1,2,4]triazol-3-ylsulfanylmethyl]-pyrido[1,2-a]pyrimidin-4-one]: under setting [1], the 50% effective concentration (EC50) stood at 17.4 nM. For the same molecule, the Emax under setting [2] was determined as 82%.

On to `Cc1ccc2nc(CSc3nnc(-c4cccs4)n3-c3cccc(Cl)c3)cc(=O)n2c1` [Example 28, 2-[4-(3-Chloro-phenyl)-5-thiophen-2-yl-4H-[1,2,4]triazol-3-ylsulfanylmethyl]-7-methyl-pyrido[1,2-a]pyrimidin-4-one], for which the EC50 under setting [1] is above 10000 nM. In addition, under setting [2], the Emax turned out to be 91%.

In the case of `Cc1ccc2nc(CSc3nnc(-c4cccs4)n3-c3ccccc3Cl)cc(=O)n2c1` [Example 29, 2-[4-(2-Chloro-phenyl)-5-thiophen-2-yl-4H-[1,2,4]triazol-3-ylsulfanylmethyl]-7-methyl-pyrido[1,2-a]pyrimidin-4-one], under setting [1], the concentration for a half-maximal effect (EC50) is 252 nM. The Emax under setting [2] was determined as 62%.

For `COc1ccc(-n2c(SCc3cc(=O)n4cc(C)ccc4n3)nnc2-c2cccs2)cn1` [Example 30], the EC50 under setting [1] was above 10000 nM. The Emax under setting [2] is 31%.

Consider `COc1ccccc1-n1c(SCc2csc(-c3ccccc3)n2)nnc1-c1cccs1` [Example 31, 4-(2-Methoxy-phenyl)-3-(2-phenyl-thiazol-4-ylmethylsulfanyl)-5-thiophen-2-yl-4H-[1,2,4]triazole], for which the Emax was found to be 133%. In addition, the concentration for a half-maximal effect (EC50) under setting [1] amounted to 635 nM.

As to `COc1ccccc1-n1c(SCc2csc(-c3ccc(C(F)(F)F)cc3)n2)nnc1-c1cccs1` [Example 32, 4-(2-Methoxy-phenyl)-3-thiophen-2-yl-5-[2-(4-trifluoromethyl-phenyl)-thiazol-4-ylmethylsulfanyl]-4H-[1,2,4]triazole], the EC50 under setting [1] worked out at 1460 nM. Moreover, the Emax under setting [2] was 33%.

`COc1ccccc1-n1c(SCc2csc(-c3ccc(F)cc3)n2)nnc1-c1cccs1` [Example 33, 3-[2-(4-Fluoro-phenyl)-thiazol-4-ylmethylsulfanyl]-4-(2-methoxy-phenyl)-5-thiophen-2-yl-4H-[1,2,4]triazole]: the concentration for a half-maximal effect (EC50) under setting [1] is 1170 nM. In addition, the Emax under setting [2] was 80%.

Take `COc1ccccc1-n1c(SCc2csc(-c3ccc([N+](=O)[O-])cc3)n2)nnc1-c1cccs1` [Example 34, 4-(2-Methoxy-phenyl)-3-[2-(4-nitro-phenyl)-thiazol-4-ylmethylsulfanyl]-5-thiophen-2-yl-4H-[1,2,4]triazole]: under setting [1], the 50% effective concentration (EC50) was above 10000 nM. The Emax under setting [2] turned out to be 120%.

For the molecule `COc1ccccc1-n1c(SCc2csc(-c3ccc(Cl)cc3)n2)nnc1-c1cccs1` [Example 35, 3-[2-(4-Chloro-phenyl)-thiazol-4-ylmethylsulfanyl]-4-(2-methoxy-phenyl)-5-thiophen-2-yl-4H-[1,2,4]triazole], the EC50 under setting [1] was above 10000 nM. For the same molecule, the Emax under setting [2] amounted to 90%.

Turning to `COc1ccccc1-n1c(SCc2csc(-c3ccc(C)cc3)n2)nnc1-c1cccs1` [Example 36, 4-(2-Methoxy-phenyl)-3-thiophen-2-yl-5-(2-p-tolyl-thiazol-4-ylmethylsulfanyl)-4H-[1,2,4]triazole], the EC50 under setting [1] is above 10000 nM. The Emax under setting [2] was determined as 83%.

Regarding `COc1ccc(-c2nc(CSc3nnc(-c4cccs4)n3-c3ccccc3OC)co2)cc1` [Example 37, 4-(2-Methoxy-phenyl)-3-[2-(4-methoxy-phenyl)-oxazol-4-ylmethylsulfanyl]-5-thiophen-2-yl-4H-[1,2,4]triazole], the EC50 under setting [1] was 3090 nM. In addition, under setting [2], the Emax came out at 138%.

Take `COc1ccccc1-n1c(SCc2coc(-c3ccc(C(F)(F)F)cc3)n2)nnc1-c1cccs1` [Example 38, 4-(2-Methoxy-phenyl)-3-thiophen-2-yl-5-[2-(4-trifluoromethyl-phenyl)-oxazol-4-ylmethylsulfanyl]-4H-[1,2,4]triazole]: under setting [1], the EC50 is above 10000 nM. Moreover, under setting [2], the Emax was determined as 18%.

As for `COc1ccccc1-n1c(SCc2coc(-c3ccc(F)cc3)n2)nnc1-c1cccs1` [Example 39, 3-[2-(4-Fluoro-phenyl)-oxazol-4-ylmethylsulfanyl]-4-(2-methoxy-phenyl)-5-thiophen-2-yl-4H-[1,2,4]triazole], the concentration for a half-maximal effect (EC50) under setting [1] was found to be 105 nM. Further, under setting [2], the Emax turned out to be 93%.

In the case of `COc1ccccc1-n1c(SCc2coc(-c3ccc(Cl)cc3)n2)nnc1-c1cccs1` [Example 40, 3-[2-(4-Chloro-phenyl)-oxazol-4-ylmethylsulfanyl]-4-(2-methoxy-phenyl)-5-thiophen-2-yl-4H-[1,2,4]triazole], the concentration giving a half-maximal response (EC50) under setting [1] came out at 3340 nM. Besides, the Emax under setting [2] was found to be 58%.

`COc1ccccc1-n1c(SCc2coc(-c3ccc(C)cc3)n2)nnc1-c1cccs1` [Example 41, 4-(2-Methoxy-phenyl)-3-thiophen-2-yl-5-(2-p-tolyl-oxazol-4-ylmethylsulfanyl)-4H-[1,2,4]triazole]: the half-maximal effective concentration (EC50) under setting [1] was 2490 nM. Besides, the Emax under setting [2] stood at 58%.

In the case of `COc1ccccc1-n1c(SCc2coc(-c3ccc(Br)cc3)n2)nnc1-c1cccs1` [Example 42, 3-[2-(4-Bromo-phenyl)-oxazol-4-ylmethylsulfanyl]-4-(2-methoxy-phenyl)-5-thiophen-2-yl-4H-[1,2,4]triazole], the EC50 under setting [1] is above 10000 nM. Besides, under setting [2], the Emax came to 33%.

With `COc1ccccc1-n1c(SCc2coc(-c3ccc(OC(F)(F)F)cc3)n2)nnc1-c1cccs1` [Example 43, 4-(2-Methoxy-phenyl)-3-thiophen-2-yl-5-[2-(4-trifluoromethoxy-phenyl)-oxazol-4-ylmethylsulfanyl]-4H-[1,2,4]triazole], the EC50 under setting [1] was found to be 3890 nM. The Emax under setting [2] amounted to 102%.

On to `COc1ccccc1-n1c(SCc2cc(=O)n3c(C)cccc3n2)nnc1-c1cccs1` [Example 44, 2-[4-(2-Methoxy-phenyl)-5-thiophen-2-yl-4H-[1,2,4]triazol-3-ylsulfanylmethyl]-6-methyl-pyrido[1,2-a]pyrimidin-4-one], for which the midpoint of the response, the EC50, lay at 9.8 nM and the Emax turned out to be 119%.

For the molecule `COc1ccc2nc(CSc3nnc(-c4cccs4)n3-c3ccccc3OC)cc(=O)n2c1` [Example 45, 7-Methoxy-2-[4-(2-methoxy-phenyl)-5-thiophen-2-yl-4H-[1,2,4]triazol-3-ylsulfanylmethyl]-pyrido[1,2-a]pyrimidin-4-one], the half-maximal effective concentration (EC50) under setting [1] was found to be 70.5 nM. Further, the Emax under setting [2] was found to be 130%.

Consider `COc1ccccc1-n1c(SCc2cc(=O)n3cc(Br)ccc3n2)nnc1-c1cccs1` [Example 46, 7-Bromo-2-[4-(2-methoxy-phenyl)-5-thiophen-2-yl-4H-[1,2,4]triazol-3-ylsulfanylmethyl]-pyrido[1,2-a]pyrimidin-4-one], for which, under setting [1], the concentration for a half-maximal effect (EC50) came out at 7.8 nM. Also, the Emax under setting [2] came out at 117%.

In the case of `COc1ccccc1-n1c(SCc2cc(=O)n3cc(C#N)ccc3n2)nnc1-c1cccs1` [Example 47, 2-[4-(2-Methoxy-phenyl)-5-thiophen-2-yl-4H-[1,2,4]triazol-3-ylsulfanylmethyl]-4-oxo-4H-pyrido[1,2-a]pyrimidine-7-carbonitrile], the concentration giving a half-maximal response (EC50) under setting [1] amounted to 25.2 nM. Besides, the Emax under setting [2] was 54%.

Regarding `COc1ccccc1-n1c(SCc2cc(=O)n3cc(C)ccc3n2)nnc1-c1cccs1` [Example 48, 2-[4-(2-Methoxy-phenyl)-5-thiophen-2-yl-4H-[1,2,4]triazol-3-ylsulfanylmethyl]-7-methyl-pyrido[1,2-a]pyrimidin-4-one], the EC50 under setting [1] stood at 28 nM. The Emax under setting [2] came out at 103%.

In the case of `COc1ccccc1-n1c(SCc2cc(=O)n3cc(F)ccc3n2)nnc1-c1cccs1` [Example 49, 7-Fluoro-2-[4-(2-methoxy-phenyl)-5-thiophen-2-yl-4H-[1,2,4]triazol-3-ylsulfanylmethyl]-pyrido[1,2-a]pyrimidin-4-one], the EC50 under setting [1] stood at 23.4 nM. For the same molecule, under setting [2], the Emax is 107%.

Consider `COc1ccccc1-n1c(SCc2cc(=O)n3cc(Cl)ccc3n2)nnc1-c1cccs1` [Example 50, 7-Chloro-2-[4-(2-methoxy-phenyl)-5-thiophen-2-yl-4H-[1,2,4]triazol-3-ylsulfanylmethyl]-pyrido[1,2-a]pyrimidin-4-one], for which the EC50 under setting [1] is 6.74 nM. For the same molecule, under setting [2], the Emax came out at 110%.

With `COc1ccccc1-n1c(SCc2cc(=O)n3ccc(C)cc3n2)nnc1-c1cccs1` [Example 51, 2-[4-(2-Methoxy-phenyl)-5-thiophen-2-yl-4H-[1,2,4]triazol-3-ylsulfanylmethyl]-8-methyl-pyrido[1,2-a]pyrimidin-4-one], under setting [1], the EC50 stood at 451 nM. Further, the Emax under setting [2] was 125%.

Source of the values: patent US12319684B2 (Sanford Burnham Prebys Medical Discovery Institute, priority 2014, dated 2025).
